# In patent US9920061B2, “Imidazo[1,5-A]pyrimidinyl carboxamide compounds and their use in the treatment of medical disorders” (Lysosomal Therapeutics Inc., priority 2016, dated 2018):
# Key:
# [1] = target: T1, glucocerebrosidase (Gcase) (Homo sapiens, UniProt P04062); test: Glucocerebrosidase (Gcase) activation assay, 4-methylumbelliferyl-beta-D-glucopyranoside substrate, with saposin C; type: biochemical; conditions: for activation at 0.1 µM: 0.1 μM test compound, read-out: Percent Gcase Activation 0.1 μM Test Compound; for activation at 1 µM: 1 μM test compound, read-out: Percent Gcase Activation 1 μM Test Compound
# T1 sequence (P04062 40-536): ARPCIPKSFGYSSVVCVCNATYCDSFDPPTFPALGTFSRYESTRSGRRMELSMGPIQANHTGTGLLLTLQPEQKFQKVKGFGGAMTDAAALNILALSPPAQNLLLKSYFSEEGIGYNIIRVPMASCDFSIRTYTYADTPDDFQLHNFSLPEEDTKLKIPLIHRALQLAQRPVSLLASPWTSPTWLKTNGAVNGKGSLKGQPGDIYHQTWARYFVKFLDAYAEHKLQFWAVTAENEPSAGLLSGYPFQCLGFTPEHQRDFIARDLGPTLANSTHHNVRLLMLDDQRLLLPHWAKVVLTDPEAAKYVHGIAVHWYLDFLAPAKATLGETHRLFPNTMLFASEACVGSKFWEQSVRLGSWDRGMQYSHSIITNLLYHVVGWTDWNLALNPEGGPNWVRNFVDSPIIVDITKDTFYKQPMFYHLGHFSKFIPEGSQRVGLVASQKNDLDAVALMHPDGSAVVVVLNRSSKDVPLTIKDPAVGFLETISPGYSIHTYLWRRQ
# Procedure: The ability of exemplary compounds to activate glucocerebrosidase (Gcase) was measured.
# A 484 μL aliquot of a 1.0 mg/mL solution of phosphatidylserine (PS) (Sigma P7769) in chloroform was evaporated under a stream of nitrogen for 1 hour. The lipid film was dissolved over 4 minutes of vigorous vortexing in 40 mL of 176 mM K2HPO4/50 mM citric acid (pH 4.7) containing 7.5 μL of triton X-100, resulting in a mixed micellar preparation with a composition of 0.32 mM triton and 0.37 mol % PS. 4-Methylumbelliferyl-beta-D-glucopyranoside (ACROS-337025000) was dissolved in the micellar solution to a final concentration of 2 mM for use as the reaction substrate.
# Test compounds were diluted to the desired concentrations with dimethylsulfoxide (DMSO) from 10 mM stocks, and 0.41 μL of the DMSO compound mixture was added to 100 μL of micellar solution containing 10 nM GCase and 100 nM saposin C (Enzo ALX-201-262-C050). Pre-incubation was allowed to occur for 30 minutes at room temperature, after which the reaction was initiated by combining 25 μL of substrate solution with 25 μL of compound/GCase/saposin mixture. The reaction proceeded for 15 minutes at room temperature and was stopped by adding 150 μL of 1M glycine, pH 12.5. The endpoint of the reaction was monitored by measuring fluorescence intensity (excitation: 365 nm; emission: 440 nm) on a SpectraMax i3 instrument (Molecular Devices). Test compounds were screened at 1.0 and 0.1 μM final concentration, and subsequent 8-point dose response curves were obtained using 3-fold dilutions from a maximum final concentration of […].
# [2] = Compound solubility in water; type: physicochemical
activation at 0.1 µM [1],activation at 1 µM [1],solubility [2],SMILES
10 to 20%,> 60%,8.7 µg/mL,COc1cc(C)n2cnc(C(=O)NC(c3ccc(F)cc3)C(F)(F)F)c2n1 (stereo not drawn) [III-19]
< 10%,> 60%,6.9 µg/mL,COc1cc(C)nc2c(C(=O)NC(c3ccc(F)cc3)C(F)(F)F)ncn12 (stereo not drawn) [III-20]
> 20%,> 60%,1.1 µg/mL,CCOc1cc(C)n2cnc(C(=O)NC(c3ccc(F)cc3)C(F)(F)F)c2n1 (stereo not drawn) [III-21]
< 10%,> 60%,24.7 µg/mL,COCc1cc(C)n2cnc(C(=O)NC(c3ccc(F)cc3)C(F)(F)F)c2n1 (stereo not drawn) [III-22]
> 20%,> 60%,10.9 µg/mL,COCc1cc(C)nc2c(C(=O)NC(c3ccc(F)cc3)C(F)(F)F)ncn12 (stereo not drawn) [III-23]
10 to 20%,> 60%,10.4 µg/mL,Cc1cc(Cl)nc2c(C(=O)NC(c3ccc(F)cc3)C(F)(F)F)ncn12 (stereo not drawn) [III-24]
> 20%,> 60%,1.5 µg/mL,Cc1cc(C)n2cnc(C(=O)NC(C)(C)C3CC4(CCC4)C3)c2n1 [III-25]
> 20%,> 60%,1.6 µg/mL,Cc1cc(-c2ccc(F)cc2)nc2c(C(=O)NC(C)(C)C3CC3)ncn12 [III-26]

# The next lines start with the compound.
SMILES,activation at 0.1 µM [1],activation at 1 µM [1],solubility [2]
C#Cc1ccc(NC(=O)c2ncn3c(C4CCCC4)cc(C)nc23)cc1 [III-1],10 to 20%,30 to 60%,0.2 µg/mL
C#Cc1cccc(C2(NC(=O)c3ncn4c(C)cc(C)nc34)CC2)c1 [III-2],< 10%,30 to 60%,19.7 µg/mL
C#Cc1cccc(C(NC(=O)c2ncn3c(C)cc(C)nc23)C(F)(F)F)c1 (stereo not drawn) [III-3],> 20%,> 60%,2.2 µg/mL
C#Cc1cccc([C@@H](NC(=O)c2ncn3c(C)cc(C)nc23)C(F)(F)F)c1 [III-4],> 20%,> 60%,6.1 µg/mL
C#Cc1cccc([C@H](NC(=O)c2ncn3c(C)cc(C)nc23)C(F)(F)F)c1 [III-5],> 20%,> 60%,5.9 µg/mL
Cc1cc(C)n2cnc(C(=O)N[C@@H](C)C3CC3)c2n1 [III-6],< 10%,< 30%,24.4 µg/mL
Cc1cc(C)n2cnc(C(=O)NC(C)(C)C3CC3)c2n1 [III-8],< 10%,< 30%,25.2 µg/mL
Cc1cc(C)n2cnc(C(=O)NC(C)C3CCCCC3)c2n1 (stereo not drawn) [III-9],< 10%,> 60%,14.3 µg/mL
Cc1cc(C)n2cnc(C(=O)NC(CC(C)C)C3CC3)c2n1 (stereo not drawn) [III-11],10 to 20%,> 60%,32.6 µg/mL
Cc1cc(-c2ccc(F)cc2)nc2c(C(=O)N[C@@H](C)C3CC3)ncn12 [III-12],10 to 20%,> 60%,9.3 µg/mL
Cc1cc(-c2ccc(F)cc2)n2cnc(C(=O)N[C@@H](C)C3CC3)c2n1 [III-13],< 10%,< 30%,25 µg/mL
Cc1cc(C)n2cnc(C(=O)NC(C3CC3)C(F)(F)F)c2n1 (stereo not drawn) [III-14],< 10%,30 to 60%,37.8 µg/mL
Cc1cc(C)n2cnc(C(=O)NC(C3CCCCC3)C(F)(F)F)c2n1 (stereo not drawn) [III-15],> 20%,> 60%,4 µg/mL
Cc1cc(C)n2cnc(C(=O)NC(c3ccc(F)cc3)C(F)(F)F)c2n1 (stereo not drawn) [III-16],10 to 20%,> 60%,24.3 µg/mL
CNc1cc(C)n2cnc(C(=O)NC(c3ccc(F)cc3)C(F)(F)F)c2n1 (stereo not drawn) [III-17],> 20%,> 60%,0.9 µg/mL
CNc1cc(C)nc2c(C(=O)NC(c3ccc(F)cc3)C(F)(F)F)ncn12 (stereo not drawn) [III-18],> 20%,> 60%,1.7 µg/mL
